Test results as given in patent US6335021B1, “Composition for controlling mood disorders in healthy individuals” (Sigma-Tau HealthScience S.p.A., priority 1997, dated 2002).

Tested on: subjects suffering from dysthymic disorders
Experiment: Clinical trial of acetyl L-carnitine in patients with mood disorders classifiable as dysthymia (rating scales, alcohol intake, libido, safety)
Type: in vivo, human
Conditions: for Hamilton Depression Rating Scale (HDRS): basal 13.9 ± 5.3; for Hamilton Anxiety Rating Scale (HARS): basal 18.6 ± 3.8; for Global Functional (or Social Adaptation) Rating (GFR): basal 63.4 ± 6.6; for alcohol-free days: baseline 6±2
Excerpt: The selection of the patients for this trial consisted in a selection by exclusion, in which the medical history criterion was of paramount importance, with exclusion of all patients presenting episodes of major depression and cyclothymic manifestations classifiable as such on the basis of the DMS criteria.
Subjects were therefore recruited whose mood disorders had been dominated by dysphoric manifestations for at least 4 years, classifiable as dysthymia (DMS IV) and a depressive, irritable, cyclothymic personality or temperament on the basis of DMS IV and AXIS II. A total of 20 patients were selected, 12 males and 8 females, matching up to the above-mentioned criteria, and with a mean age of 26±2 years. Six patients (males) also complained of diminished libido and episodes of impotence, while the 8 female patients complained of loss of libido and anorexia. Eight patients (4 males) reported an increased intake of alcoholic beverages, without clinical complications, in the previous 8 months (mean intake 142±15 g/day) and 6 patients (1 male) reported bulimic episodes resulting in a mean weight gain of 2.1±0.5 kg over the previous 6 months.
Each patient was recruited into the study after 3 repeated visits, at monthly intervals, for the purposes of ruling out other concomitant pathologies or disorders according to DMS IV and AXIS II involving definite abuse of psychotropic substances. The objective neurological examination, current laboratory tests (SMA plus), ECG. BP and chest X-rays were all within normal limits.
None of the patients had been treated with SSRI or tricyclic antidepressants during the previous year. In the course of the month preceding the treatment with acetyl L-carnitine all treatments consisting in administration of benzodiazepines during the daytime were discontinued and only the administration of Lorazepam (2.5 mg) at 9 p.m. was allowed for all patients.
Each patient was administered acetyl L-carnitine 1 g per os twice daily (at breakfast- and lunch-time) for two months.
During the clinical interviews, at entry into the study, on day 45 of administration of acetyl L-carnitine and on day 90 (one month after the end of the treatment), patients were administered the following standardized rating scales: Hamilton Depression Rating Scale (HDRS), Hamilton Anxiety Rating Scale (HARS), Global Functional (or Social Adaptation) Rating (GFR).
For the recording of alcohol intake, a self-administered scale was used to record the alcohol-free days as a percentage of the total and the number of daily alcohol intakes, considering the intake of 10 grams as a single intake, in the month preceding treatment, during the treatment months and in the month following acetyl L-carnitine treatment.

[1] = Day 45 of administration, 1 g per os twice daily
[2] = Day 90 (one month after the end of treatment)

CC(=O)O[C@H](CC(=O)[O-])C[N+](C)(C)C [acetyl L-carnitine]
Hamilton Depression Rating Scale (HDRS) (Day 45 of administration, 1 g per os twice daily, 20 patients): 9.1 ± 4.8
Hamilton Anxiety Rating Scale (HARS) [1]: 12.8 ± 4.4
Global Functional (or Social Adaptation) Rating (GFR) [1]: 75.3 ± 7.9
Hamilton Depression Rating Scale (HDRS) (Day 90 (one month after the end of the two-month treatment)): 12.8 ± 5.4
Hamilton Anxiety Rating Scale (HARS) [2]: 16.9 ± 5.0
Global Functional (or Social Adaptation) Rating (GFR) [2]: 67.7 ± 6.8
symptoms of impotence and diminished libido (all male patients, 15 days after the start of treatment): disappearance of symptoms of impotence and diminished libido
alcohol-free days (during the two months of treatment, on average, self-administered scale): 16±3
changes in laboratory tests, BP and ECG as compared to pre-treatment conditions (end of treatment): no significant changes
laboratory tests performed at the end of treatment (end of two-month treatment, 1 g per os twice daily): normal values
alcohol-free days (in the month after treatment): 8±2
expression of the depressive behavioural component (subjects suffering from dysthymic disorders, conclusion of the clinical trial): significantly reduces
mean number of alcohol intakes (10 grams = a single intake) (under treatment, as against 7.8±1.2): 6.1±2.1
